The target in this assay is T1, MC4 (Homo sapiens, UniProt P32245).
T1 construct: purchased Perkin Elmer BioSignal; host or cells: HEK 293
As to the kind of experiment: GPCR radioligand binding (RLB) assay, melanocortin MC4, [125I]NDP-αMSH. As to the method: Recombinant human receptors expressed in HEK 293 cells were used for all experiments. Receptor membrane preparations were purchased from Perkin Elmer BioSignal. The labelled ligand used in somatostatin GPCR RLB assays was [^125I]SST-14 and in melanocortin assays was [^125I]NDP-αMSH. All assays were done in a 96-well plate format using either glass fiber filter mats or filter plates. All reagents purchased were of the highest quality.
Specific assay buffer, incubation and washing conditions were optimized for each receptor however they all followed the same general format. The procedures for both filter mat and filter plate formats are based on the receptor manufacturers recommendations or those described extensively in the literature. The procedures are briefly outlined below.
In assays where filter mats are used we incubate receptor membranes, assay buffer and [^125I] labelled ligand in 96 well microplates. Add compounds to incubation mixture and continue incubation for optimized period. Presoak Filter mat GF/B in 0.5% PEI for ˜2 hr at 4° C. On completion of assay mixture incubation add additional 100 μL/well of assay buffer immediately prior to filtration. Filter the assay mixture onto the GF/B filter mat using a cell harvester. Dry the filter mats prior to sealing them into a scintillation counting bag with scintillant. Radioactivity in each well is detected by liquid scintillation counting.
In assays where filter plates are used Multiscreen glass fiber filter plates (Millipore, Cat No MAFCNOB10) are precoated with 0.5% PEI for ˜2 hr at 4° C. All wells are then washed with 200 µl/well assay buffer and filtered using the Multiscreen Separation System. Subsequently receptor membranes, assay buffer and labelled ligands are added to the wells and equilibrated. Compounds for testing are then added to the mixture and incubation is continued for an optimized time. Plates are then put into the Multiscreen Separation System and the assay mixture is filtered through the plate under vacuum. Each well is then washed several times with assay buffer. Plates are then dried prior to putting sealing tape onto the bottom of the plate. Scintillant is added to each well and radioactivity measured by liquid scintillation counting.
Raw data was analysed according to standard methods using either GraphPad Prism software or IDDBS ActivityBase software.

The mark [1] stands for this setting: 4.0 Micromolar, Example Library 10.

T1 sequence (P32245 whole entry): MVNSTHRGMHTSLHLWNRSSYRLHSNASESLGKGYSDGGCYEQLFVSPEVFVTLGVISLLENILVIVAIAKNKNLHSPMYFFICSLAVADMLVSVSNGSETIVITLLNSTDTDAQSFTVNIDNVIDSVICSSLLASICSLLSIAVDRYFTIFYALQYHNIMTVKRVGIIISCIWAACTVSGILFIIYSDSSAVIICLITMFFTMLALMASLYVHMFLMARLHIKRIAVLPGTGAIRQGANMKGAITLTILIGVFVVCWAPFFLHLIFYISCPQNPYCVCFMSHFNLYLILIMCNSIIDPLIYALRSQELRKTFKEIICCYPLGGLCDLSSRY

`COC1C(O)C(COCc2ccc3ccccc3c2)OC(OCc2ccc(Cl)cc2)C1NC(=O)C1CCCN(C(=N)N)C1` (centres unmarked) [Compound 344]: the “MC4 Inhibition at 4.0 Micromolar” value (4.0 micromolar compound) was “+ (Indicates inhibition greater than . . . 50%)”.

As for `COC1C(O)C(COCc2ccc3ccccc3c2)OC(OCc2ccc(Cl)cc2)C1NC(=O)CNC(=N)N` (centres unmarked) [Compound 345], the “MC4 Inhibition at 4.0 Micromolar” value (4.0 micromolar compound) was “+ (Indicates inhibition greater than . . . 50%)”.

On to `COC1C(O)C(COCc2ccc3ccccc3c2)OC(OCc2ccc(Cl)cc2)C1NC(=O)C(N)CN` (centres unmarked) [Compound 346], for which, for the setting “4.0 micromolar compound”, the “MC4 Inhibition at 4.0 Micromolar” value is given as “+ (Indicates inhibition greater than . . . 50%)”.

Regarding `COC1C(O)C(COCc2ccc3ccccc3c2)OC(OCc2ccc(Cl)cc2)C1NCC(=O)C1CCCN1` (centres unmarked) [Compound 347], where the note is “4.0 micromolar compound”, the “MC4 Inhibition at 4.0 Micromolar” value was “+ (Indicates inhibition greater than . . . 50%)”.

Take `COC1C(O)C(COCc2ccc3ccccc3c2)OC(OCc2ccc(Cl)cc2)C1NC(=O)C1CCN(C(=N)N)CC1` (centres unmarked) [Compound 348]: under “4.0 micromolar compound”, the “MC4 Inhibition at 4.0 Micromolar” value is on record as “+ (Indicates inhibition greater than . . . 50%)”.

In the case of `COC1C(O)C(COCc2ccc3ccccc3c2)OC(OCc2ccc(Cl)cc2)C1NC(=O)CNC(=N)N` (centres unmarked) [Compound 349], where the note is “4.0 micromolar compound”, the “MC4 Inhibition at 4.0 Micromolar” value is listed as “+ (Indicates inhibition greater than . . . 50%)”.

For `NCC(=O)N[C@H]1C(OCc2ccc3ccccc3c2)O[C@H](COCc2ccc3ccccc3c2)[C@@H](O)[C@@H]1OCc1ccc(Cl)cc1` (some centres unmarked) [Compound 350], under setting [1], the “MC4 Inhibition at 4.0 Micromolar” value is “+ (Indicates inhibition greater than . . . 50%)”.

With `NCC(=O)N[C@H]1C(OCc2ccc3ccccc3c2)O[C@H](COCc2ccc3ccccc3c2)[C@@H](O)[C@@H]1OCc1ccc(Cl)cc1` (some centres unmarked) [Compound 351], the “MC4 Inhibition at 4.0 Micromolar” value under setting [1] is reported as “+ (Indicates inhibition greater than . . . 50%)”.

Turning to `NCCC(=O)N[C@H]1C(OCc2ccc3ccccc3c2)O[C@H](COCc2ccccc2)[C@@H](O)[C@@H]1OCc1ccc(Cl)cc1` (some centres unmarked) [Compound 352], the “MC4 Inhibition at 4.0 Micromolar” value under setting [1] is “+ (Indicates inhibition greater than . . . 50%)”.

For the molecule `NCCC(=O)N[C@H]1C(OCc2ccc3ccccc3c2)O[C@H](COCc2ccccc2)[C@@H](O)[C@@H]1OCc1ccc(Cl)cc1` (some centres unmarked) [Compound 353], under setting [1], the “MC4 Inhibition at 4.0 Micromolar” value was “+ (Indicates inhibition greater than . . . 50%)”.

On to `NCCC(=O)N[C@H]1C(OCc2ccc3ccccc3c2)O[C@H](COCc2ccc(Cl)cc2)[C@@H](O)[C@@H]1OCc1ccc(Cl)cc1` (some centres unmarked) [Compound 354], for which, under setting [1], the “MC4 Inhibition at 4.0 Micromolar” value is “+ (Indicates inhibition greater than . . . 50%)”.

For `NCCC(=O)N[C@H]1C(OCc2ccc3ccccc3c2)O[C@H](COCc2ccc(Cl)cc2)[C@@H](O)[C@@H]1OCc1ccc(Cl)cc1` (some centres unmarked) [Compound 355], the “MC4 Inhibition at 4.0 Micromolar” value under setting [1] is recorded as “+ (Indicates inhibition greater than . . . 50%)”.

Consider `NCC(=O)N[C@H]1C(OCc2ccc3ccccc3c2)O[C@H](COCc2ccc3ccccc3c2)[C@@H](O)[C@@H]1OCc1ccc2ccccc2c1` (some centres unmarked) [Compound 356], for which the “MC4 Inhibition at 4.0 Micromolar” value under setting [1] is “+ (Indicates inhibition greater than . . . 50%)”.

Consider `NCCC(=O)N[C@H]1C(OCc2ccc3ccccc3c2)O[C@H](COCc2ccc3ccccc3c2)[C@@H](O)[C@@H]1OCc1ccc2ccccc2c1` (some centres unmarked) [Compound 357], for which the “MC4 Inhibition at 4.0 Micromolar” value under setting [1] was “+ (Indicates inhibition greater than . . . 50%)”.

On to `NCCC(=O)N[C@H]1C(OCc2ccc3ccccc3c2)O[C@H](COCc2ccccc2)[C@@H](O)[C@@H]1OCc1ccc2ccccc2c1` (some centres unmarked) [Compound 358], for which the “MC4 Inhibition at 4.0 Micromolar” value under setting [1] is listed as “+ (Indicates inhibition greater than . . . 50%)”.

On to `NCCC(=O)N[C@H]1C(OCc2ccc3ccccc3c2)O[C@H](COCc2ccc(Cl)cc2)[C@@H](O)[C@@H]1OCc1ccc2ccccc2c1` (some centres unmarked) [Compound 359], for which, under setting [1], the “MC4 Inhibition at 4.0 Micromolar” value is “+ (Indicates inhibition greater than . . . 50%)”.

Take `NCCC(=O)N[C@H]1C(OCc2ccc3ccccc3c2)O[C@H](COCc2ccc(Cl)cc2)[C@@H](O)[C@@H]1OCc1ccc2ccccc2c1` (some centres unmarked) [Compound 360]: the “MC4 Inhibition at 4.0 Micromolar” value under setting [1] is “+ (Indicates inhibition greater than . . . 50%)”.

On to `NCCC(=O)N[C@H]1C(OCc2ccc3ccccc3c2)O[C@H](COCc2ccc3ccccc3c2)[C@@H](O)[C@@H]1OCc1ccccc1` (some centres unmarked) [Compound 361], for which, under setting [1], the “MC4 Inhibition at 4.0 Micromolar” value was “+ (Indicates inhibition greater than . . . 50%)”.

In the case of `NCC(=O)N[C@H]1C(OCc2ccc3ccccc3c2)O[C@H](COCc2ccc(Cl)cc2)[C@@H](O)[C@@H]1OCc1ccccc1` (some centres unmarked) [Compound 364], the “MC4 Inhibition at 4.0 Micromolar” value under setting [1] is listed as “+ (Indicates inhibition greater than . . . 50%)”.

With `NCCCC(=O)N[C@H]1C(OCc2ccc3ccccc3c2)O[C@H](COCc2ccc3ccccc3c2)[C@@H](O)[C@@H]1OCc1ccc2ccccc2c1` (some centres unmarked) [Compound 369], the “MC4 Inhibition at 4.0 Micromolar” value under setting [1] is reported as “+ (Indicates inhibition greater than . . . 50%)”.

As for `NCCCC(=O)N[C@H]1C(OCc2ccc3ccccc3c2)O[C@H](COCc2ccccc2)[C@@H](O)[C@@H]1OCc1ccccc1` (some centres unmarked) [Compound 374], under setting [1], the “MC4 Inhibition at 4.0 Micromolar” value is “+ (Indicates inhibition greater than . . . 50%)”.

On to `NCCCC(=O)N[C@H]1C(OCc2ccc3ccccc3c2)O[C@H](COCc2ccc(Cl)cc2)[C@@H](O)[C@@H]1OCc1ccccc1` (some centres unmarked) [Compound 375], for which, under setting [1], the “MC4 Inhibition at 4.0 Micromolar” value was “+ (Indicates inhibition greater than . . . 50%)”.

On to `NCCC(=O)N[C@H]1C(OCc2ccc(Cl)cc2)O[C@H](COCc2ccccc2)[C@@H](O)[C@@H]1OCc1ccc(Cl)cc1` (some centres unmarked) [Compound 376], for which, under setting [1], the “MC4 Inhibition at 4.0 Micromolar” value was “+ (Indicates inhibition greater than . . . 50%)”.

On to `NCCC(=O)N[C@H]1C(OCc2ccc(Cl)cc2)O[C@H](COCc2ccc(Cl)cc2)[C@@H](O)[C@@H]1OCc1ccc(Cl)cc1` (some centres unmarked) [Compound 377], for which the “MC4 Inhibition at 4.0 Micromolar” value under setting [1] is listed as “+ (Indicates inhibition greater than . . . 50%)”.

With `NCCC(=O)N[C@H]1C(OCc2ccc(Cl)cc2)O[C@H](COCc2ccc3ccccc3c2)[C@@H](O)[C@@H]1OCc1ccc2ccccc2c1` (some centres unmarked) [Compound 378], the “MC4 Inhibition at 4.0 Micromolar” value under setting [1] is “+ (Indicates inhibition greater than . . . 50%)”.

Take `NCCC(=O)N[C@H]1C(OCc2ccc(Cl)cc2)O[C@H](COCc2ccccc2)[C@@H](O)[C@@H]1OCc1ccc2ccccc2c1` (some centres unmarked) [Compound 379]: under setting [1], the “MC4 Inhibition at 4.0 Micromolar” value was “+ (Indicates inhibition greater than . . . 50%)”.

Consider `NCC(=O)N[C@H]1C(OCc2ccc(Cl)cc2)O[C@H](COCc2ccccc2)[C@@H](O)[C@@H]1OCc1ccc2ccccc2c1` (some centres unmarked) [Compound 380], for which the “MC4 Inhibition at 4.0 Micromolar” value under setting [1] is “+ (Indicates inhibition greater than . . . 50%)”.

On to `NCCC(=O)N[C@H]1C(OCc2ccc(Cl)cc2)O[C@H](COCc2ccc(Cl)cc2)[C@@H](O)[C@@H]1OCc1ccc2ccccc2c1` (some centres unmarked) [Compound 381], for which the “MC4 Inhibition at 4.0 Micromolar” value under setting [1] was “+ (Indicates inhibition greater than . . . 50%)”.

Turning to `NCC(=O)N[C@H]1C(OCc2ccc(Cl)cc2)O[C@H](COCc2ccc(Cl)cc2)[C@@H](O)[C@@H]1OCc1ccc2ccccc2c1` (some centres unmarked) [Compound 382], under setting [1], the “MC4 Inhibition at 4.0 Micromolar” value is listed as “+ (Indicates inhibition greater than . . . 50%)”.

Take `NCCC(=O)N[C@H]1C(OCc2ccc(Cl)cc2)O[C@H](COCc2ccc3ccccc3c2)[C@@H](O)[C@@H]1OCc1ccccc1` (some centres unmarked) [Compound 383]: the “MC4 Inhibition at 4.0 Micromolar” value under setting [1] is given as “+ (Indicates inhibition greater than . . . 50%)”.

`NCC(=O)N[C@H]1C(OCc2ccc(Cl)cc2)O[C@H](COCc2ccccc2)[C@@H](O)[C@@H]1OCc1ccccc1` (some centres unmarked) [Compound 384]: the “MC4 Inhibition at 4.0 Micromolar” value under setting [1] is “+ (Indicates inhibition greater than . . . 50%)”.

Consider `NCCC(=O)N[C@H]1C(OCc2ccc(Cl)cc2)O[C@H](COCc2ccc(Cl)cc2)[C@@H](O)[C@@H]1OCc1ccccc1` (some centres unmarked) [Compound 385], for which, under setting [1], the “MC4 Inhibition at 4.0 Micromolar” value is on record as “+ (Indicates inhibition greater than . . . 50%)”.

Turning to `NCCCC(=O)N[C@H]1C(OCc2ccc(Cl)cc2)O[C@H](COCc2ccc3ccccc3c2)[C@@H](O)[C@@H]1OCc1ccc(Cl)cc1` (some centres unmarked) [Compound 386], the “MC4 Inhibition at 4.0 Micromolar” value under setting [1] is “+ (Indicates inhibition greater than . . . 50%)”.

For `NCCCC(=O)N[C@H]1C(OCc2ccc(Cl)cc2)O[C@H](COCc2ccccc2)[C@@H](O)[C@@H]1OCc1ccc(Cl)cc1` (some centres unmarked) [Compound 387], under setting [1], the “MC4 Inhibition at 4.0 Micromolar” value is “+ (Indicates inhibition greater than . . . 50%)”.

As to `NCCCC(=O)N[C@H]1C(OCc2ccc(Cl)cc2)O[C@H](COCc2ccc(Cl)cc2)[C@@H](O)[C@@H]1OCc1ccc(Cl)cc1` (some centres unmarked) [Compound 388], under setting [1], the “MC4 Inhibition at 4.0 Micromolar” value is on record as “+ (Indicates inhibition greater than . . . 50%)”.

With `NCCCC(=O)N[C@H]1C(OCc2ccc(Cl)cc2)O[C@H](COCc2ccc3ccccc3c2)[C@@H](O)[C@@H]1OCc1ccccc1` (some centres unmarked) [Compound 395], under setting [1], the “MC4 Inhibition at 4.0 Micromolar” value is reported as “+ (Indicates inhibition greater than . . . 50%)”.

On to `NCCCC(=O)N[C@H]1C(OCc2ccc(Cl)cc2)O[C@H](COCc2ccc(Cl)cc2)[C@@H](O)[C@@H]1OCc1ccccc1` (some centres unmarked) [Compound 396], for which, under setting [1], the “MC4 Inhibition at 4.0 Micromolar” value is given as “+ (Indicates inhibition greater than . . . 50%)”.

For the molecule `NCCC(=O)NC1C(OCc2ccccc2)OC(COCc2ccc3ccccc3c2)C(O)C1OCc1ccc(Cl)cc1` (centres unmarked) [Compound 397], the “MC4 Inhibition at 4.0 Micromolar” value (4.0 Micromolar, Example Library 11) was “+ (Indicates inhibition greater than . . . 50%)”.

The values above are taken from patent publication US7994140B2, “Classes of compounds that interact with GPCRs” (Alchemia Limited, priority 2002, dated 2011).
